The results in this text go back to ChEMBL document CHEMBL1629538 (J Med Chem, 2010).

Active and inactive are the calls of the source. No cut-off for these calls is given here. Bridge positions count the residues as written; N and C are the ends. Peptide text beside a SMILES is read from it. * marks the point of attachment. Bz = O=C(c1ccccc1)*

Data set [1] addresses T1, Nociceptin receptor (Mus musculus, UniProt P35377). As to the kind of experiment: Antagonist activity at NOR in mouse Neuro-2a cells assessed as inhibition of nociceptin-induced ERK phosphorylation administered for 15 mins before nociceptin challenge by Alphascreen Surefire assay. Format: functional, cell-based. (In general: In Alpha technology, singlet oxygen from a donor bead excites a nearby acceptor bead.)

In data set [2] the target is Nociceptin receptor (Mus musculus) (UniProt P35377). Description: Antagonist activity at NOR in mouse Neuro-2a cells assessed as inhibition of nociceptin-induced ERK phosphorylation at 100 nM administered for 15 mins before nociceptin challenge by Alphascreen Surefire assay. Type of data set: functional, cell-based.
The target is the same in data set [3]. Description: Agonist activity at NOR in mouse Neuro-2a cells assessed as stimulation of ERK phosphorylation after 35 mins post dose by Alphascreen Surefire assay relative to control.
The target of data set [4] is T1, Nociceptin receptor. Description: Agonist activity at NOR in mouse Neuro-2a cells assessed as stimulation of ERK phosphorylation after 35 mins post dose by Alphascreen Surefire assay.
In data set [5] the target is T1, Nociceptin receptor. As to the kind of experiment: Antagonist activity at NOR in mouse Neuro-2a cells assessed as inhibition of nociceptin-induced ERK phosphorylation administered for 15 mins before nociceptin challenge by competitive inhibition assay. Type of data set: functional, cell-based. The conditions noted are these: read-out: pA2 (converted).
The target of data set [6] is Nociceptin receptor (Mus musculus) (UniProt P35377). As to the kind of experiment: Agonist activity at NOR in mouse Neuro-2a cells assessed as stimulation of ERK phosphorylation at 1 uM after 35 mins post dose by Alphascreen Surefire assay.
Data set [7] can be described thus: Half life in human serum. Type of data set: ADME, cell-free.
The nature of data set [8]: Cytotoxicity in human erythrocytes assessed as induction of hemolysis at 100 uM. Format: cell-based. The conditions noted are these: erythrocyte.

T1 sequence (P35377 whole entry): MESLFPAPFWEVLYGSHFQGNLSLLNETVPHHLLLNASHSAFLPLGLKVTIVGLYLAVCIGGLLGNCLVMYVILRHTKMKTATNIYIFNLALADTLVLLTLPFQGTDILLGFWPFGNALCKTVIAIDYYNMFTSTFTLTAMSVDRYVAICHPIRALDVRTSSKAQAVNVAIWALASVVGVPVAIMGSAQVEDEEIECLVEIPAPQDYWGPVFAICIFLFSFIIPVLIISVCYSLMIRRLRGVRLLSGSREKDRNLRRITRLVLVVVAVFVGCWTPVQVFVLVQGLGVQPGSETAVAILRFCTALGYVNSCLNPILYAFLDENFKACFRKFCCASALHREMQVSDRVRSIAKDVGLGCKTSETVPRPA
Sequence of Nociceptin receptor (Mus musculus) (P35377 whole entry): as above

Consider `CC(C)C[C@@H]1NC(=O)[C@H](CCCCN)NC(=O)[C@H](CCCN=C(N)N)NC(=O)[C@@H](NC(=O)[C@@H]2CC(=O)NCCCC[C@H](NC(=O)[C@@H](NC(=O)[C@H](Cc3ccccc3)NC(=O)CNC(=O)CNC(=O)CNC(=O)c3ccccc3)[C@@H](C)O)C(=O)N[C@@H](C)C(=O)N[C@@H](CCCN=C(N)N)C(=O)N[C@@H](CCCCN)C(=O)N2)CCCCNC(=O)C[C@@H](C(N)=O)NC1=O` (Bz-GGGFTKARKDKRKLD-NH2; lactam 6-10, 11-15), for which the IC50 at Nociceptin receptor [1] (read-out: pIC50 (converted)) is more than 100 nM.

As to `CC(=O)N[C@H](C(=O)N[C@H]1CCCCNC(=O)C[C@@H](C(=O)N[C@H]2CCCCNC(=O)C[C@@H](C(N)=O)NC(=O)[C@H](CC(C)C)NC(=O)[C@H](CCCCN)NC(=O)[C@H](CCCNC(=N)N)NC2=O)NC(=O)[C@H](CCCCN)NC(=O)[C@H](CCCNC(=N)N)NC(=O)[C@H](C)NC1=O)[C@@H](C)O` (Ac-TKARKDKRKLD-NH2; lactam 2-6, 7-11), the inhibition result in data set [2] was “inactive”.

The term Emax denotes the maximal effect, on the per cent scale that the assay sets. For the compound `C[C@H](NC(=O)CNC(=O)[C@@H](NC(=O)[C@H](Cc1ccccc1)NC(=O)CNC(=O)CNC(=O)[C@@H](N)Cc1ccccc1)[C@@H](C)O)C(=O)N[C@@H](CCCNC(=N)N)C(=O)N[C@@H](CCCCN)C(=O)N[C@@H](CO)C(=O)N[C@@H](C)C(=O)N[C@@H](CCCNC(=N)N)C(=O)N[C@@H](CCCCN)C(N)=O`, the Emax in data set [3] is 90%.

For `CC(=O)N[C@H](C(=O)N[C@H]1CCCCNC(=O)C[C@@H](C(=O)N[C@H]2CCCCNC(=O)C[C@@H](C(N)=O)NC(=O)[C@H](CC(C)C)NC(=O)[C@H](CCCCN)NC(=O)[C@H](CCCN=C(N)N)NC2=O)NC(=O)[C@H](CCCCN)NC(=O)[C@H](CCCN=C(N)N)NC(=O)[C@H](C)NC1=O)[C@@H](C)O` (Ac-TKARKDKRKLD-NH2; lactam 2-6, 7-11), the IC50 on Nociceptin receptor [1] (read-out: pIC50 (converted)) is more than 100 nM.

As usually defined, the EC50 is the concentration giving half of the maximal effect. On to `C[C@@H](O)[C@H](NC(=O)[C@H](Cc1ccccc1)NC(=O)CNC(=O)CNC(=O)[C@@H](N)Cc1ccccc1)C(=O)NCC(=O)N[C@H]1CCCCNC(=O)C[C@@H](C(N)=O)NC(=O)[C@H](CCCCN)NC(=O)[C@H](CCCN=C(N)N)NC(=O)[C@@H]2CC(=O)NCCCC[C@@H](CC(=O)[C@H](CCCCN)NC(=O)[C@H](CCCN=C(N)N)NC1=O)C(=O)N2`, for which, at Nociceptin receptor [4], the EC50 amounted to 14 nM.

`C[C@@H](O)[C@H](NC(=O)[C@H](Cc1ccc(F)cc1)NC(=O)CNC(=O)CNC(=O)CNC(=O)c1ccccc1)C(=O)NCC(=O)N[C@H]1CCCCNC(=O)C[C@@H](C(=O)N[C@@H](CCCN=C(N)N)C(=O)N[C@@H](CCCCN)C(=O)N[C@H]2CCCCNC(=O)C[C@@H](C(N)=O)NC(=O)[C@H](CCC(N)=O)NC(=O)[C@H](CC(N)=O)NC(=O)[C@H](CCCCN)NC2=O)NC(=O)[C@H](CO)NC(=O)[C@H](CCCCN)NC(=O)[C@H](CCCN=C(N)N)NC1=O`: the Kb on Nociceptin receptor [5] is 1.95 nM. For the same compound, at Nociceptin receptor [1] (read-out: IC50), the IC50 is 7.5 nM.

For the compound `C[C@@H](O)[C@H](NC(=O)[C@H](Cc1ccccc1)NC(=O)CNC(=O)CNC(=O)CNC(=O)c1ccccc1)C(=O)NCC(=O)N[C@H]1CCCCNC(=O)C[C@@H](C(=O)N[C@@H](CCCN=C(N)N)C(=O)N[C@@H](CCCCN)C(=O)N[C@H]2CCCCNC(=O)C[C@@H](C(N)=O)NC(=O)[C@H](CCC(N)=O)NC(=O)[C@H](CC(N)=O)NC(=O)[C@H](CCCCN)NC2=O)NC(=O)[C@H](CO)NC(=O)[C@H](CCCCN)NC(=O)[C@H](CCCN=C(N)N)NC1=O` (Bz-GGGFTGKRKSDRKKKNQD-NH2; lactam 7-11, 14-18), the IC50 at Nociceptin receptor [1] (read-out: IC50) was 12 nM.

As for `CC(C)C[C@@H]1NC(=O)[C@H](CCCCN)NC(=O)[C@H](CCCNC(=N)N)NC(=O)[C@@H](NC(=O)[C@@H]2CC(=O)NCCCC[C@H](NC(=O)[C@@H](NC(=O)[C@H](Cc3ccccc3)NC(=O)CNC(=O)CNC(=O)CNC(=O)c3ccccc3)[C@@H](C)O)C(=O)N[C@@H](C)C(=O)N[C@@H](CCCNC(=N)N)C(=O)N[C@@H](CCCCN)C(=O)N2)CCCCNC(=O)C[C@@H](C(N)=O)NC1=O` (Bz-GGGFTKARKDKRKLD-NH2; lactam 6-10, 11-15), in data set [2], the inhibition entry was “inactive”.

In the case of `C[C@@H](O)[C@H](NC(=O)[C@H](Cc1ccc(F)cc1)NC(=O)CNC(=O)CNC(=O)CNC(=O)c1ccccc1)C(=O)NCC(=O)N[C@H]1CCCCNC(=O)C[C@@H](C(=O)N[C@@H](CCCNC(=N)N)C(=O)N[C@@H](CCCCN)C(=O)N[C@H]2CCCCNC(=O)C[C@@H](C(N)=O)NC(=O)[C@H](CCC(N)=O)NC(=O)[C@H](CC(N)=O)NC(=O)[C@H](CCCCN)NC2=O)NC(=O)[C@H](CO)NC(=O)[C@H](CCCCN)NC(=O)[C@H](CCCNC(=N)N)NC1=O`, the result in data set [6] was inactive.

For the compound `C[C@@H](O)[C@H](NC(=O)[C@H](Cc1ccccc1)NC(=O)CNC(=O)CNC(=O)[C@@H](N)Cc1ccccc1)C(=O)NCC(=O)N[C@H]1CCCCNC(=O)C[C@@H](C(=O)N[C@@H](CCCNC(=N)N)C(=O)N[C@@H](CCCCN)C(N)=O)NC(=O)[C@H](CO)NC(=O)[C@H](CCCCN)NC(=O)[C@H](CCCNC(=N)N)NC1=O` (H-FGGFTGKRKSDRK-NH2; lactam 7-11), the Emax in data set [3] stood at 80%.

Turning to `C[C@@H](O)[C@H](NC(=O)[C@H](Cc1ccccc1)NC(=O)CNC(=O)CNC(=O)[C@@H](N)Cc1ccccc1)C(=O)NCC(=O)N[C@H]1CCCCNC(=O)C[C@@H](C(N)=O)NC(=O)[C@H](CCCCN)NC(=O)[C@H](CCCNC(=N)N)NC(=O)[C@@H]2CC(=O)NCCCC[C@@H](CC(=O)[C@H](CCCCN)NC(=O)[C@H](CCCNC(=N)N)NC1=O)C(=O)N2`, in data set [3], the maximum response (Emax) was 92%.

The pIC50 is −log10 of the IC50, conventionally taken in molar units. With `CC(C)C[C@H](NC(=O)[C@H](CCCCN)NC(=O)[C@H](CCCN=C(N)N)NC(=O)[C@H](C)NC(=O)[C@H](CO)NC(=O)[C@H](CCCCN)NC(=O)[C@H](CCCN=C(N)N)NC(=O)[C@H](C)NC(=O)CNC(=O)[C@@H](NC(=O)[C@H](Cc1ccc(F)cc1)NC(=O)CNC(=O)CNC(=O)CNCc1ccccc1)[C@@H](C)O)C(=O)N[C@@H](CCCCN)C(=O)N[C@@H](CC(N)=O)C(=O)N[C@@H](CCC(N)=O)C(N)=O`, at Nociceptin receptor [1] (neuro-2a), the negative-log IC50 (pIC50) is 7.49.

As usually defined, the half-life is how long it takes for the measured level to halve. Read a high half-life as slow decline. Regarding `C[C@@H]1NC(=O)[C@@H](NC(=O)[C@H](CCCCN)NC(=O)[C@H](CCCN=C(N)N)NC(=O)[C@@H]2CC(=O)NCCCC[C@H](NC(=O)CNC(=O)[C@@H](NC(=O)[C@H](Cc3ccccc3)NC(=O)CNC(=O)CNC(=O)[C@@H](N)Cc3ccccc3)[C@@H](C)O)C(=O)N[C@@H](CCCN=C(N)N)C(=O)N[C@@H](CCCCN)C(=O)N[C@@H](CO)C(=O)N2)CCCCNC(=O)C[C@@H](C(N)=O)NC(=O)[C@H](CCC(N)=O)NC(=O)[C@H](CC(N)=O)NC1=O`, the half-life in data set [7] was more than 6 h. For the same compound, the Activity result in data set [8] is reported as “Non-toxic”.

Consider `C[C@@H](O)[C@H](NC(=O)[C@H](Cc1ccc(F)cc1)NC(=O)CNC(=O)CNC(=O)[C@@H](N)Cc1ccccc1)C(=O)NCC(=O)N[C@H]1CCCCNC(=O)C[C@@H](C(=O)N[C@@H](CCCN=C(N)N)C(=O)N[C@@H](CCCCN)C(=O)N[C@H]2CCCCNC(=O)C[C@@H](C(N)=O)NC(=O)[C@H](CCC(N)=O)NC(=O)[C@H](CC(N)=O)NC(=O)[C@H](CCCCN)NC2=O)NC(=O)[C@H](CO)NC(=O)[C@H](CCCCN)NC(=O)[C@H](CCCN=C(N)N)NC1=O`, for which the EC50 on Nociceptin receptor [4] and on Nociceptin receptor [4] (neuro-2a) was 0.04 nM each time.

Regarding `CC(C)C[C@H](NC(=O)[C@H](CCCCN)NC(=O)[C@H](CCCNC(=N)N)NC(=O)[C@H](C)NC(=O)[C@H](CO)NC(=O)[C@H](CCCCN)NC(=O)[C@H](CCCNC(=N)N)NC(=O)[C@H](C)NC(=O)CNC(=O)[C@@H](NC(=O)[C@H](Cc1ccc(F)cc1)NC(=O)CNC(=O)CNC(=O)CNC(=O)c1ccccc1)[C@@H](C)O)C(=O)N[C@@H](CCCCN)C(=O)N[C@@H](CC(N)=O)C(=O)N[C@@H](CCC(N)=O)C(N)=O`, the result in data set [6] was inactive.

Take `C[C@@H](O)[C@H](NC(=O)[C@H](Cc1ccccc1)NC(=O)CNC(=O)CNC(=O)[C@@H](N)Cc1ccccc1)C(=O)NCC(=O)N[C@H]1CCCCNC(=O)C[C@@H](C(=O)N[C@@H](CCCN=C(N)N)C(=O)N[C@@H](CCCCN)C(N)=O)NC(=O)[C@H](CO)NC(=O)[C@H](CCCCN)NC(=O)[C@H](CCCN=C(N)N)NC1=O` (H-FGGFTGKRKSDRK-NH2; lactam 7-11): the EC50 at Nociceptin receptor [4] was 30 nM.

As for `CC(C)C[C@H](NC(=O)[C@H](CCCCN)NC(=O)[C@H](CCCN=C(N)N)NC(=O)[C@H](C)NC(=O)[C@H](CO)NC(=O)[C@H](CCCCN)NC(=O)[C@H](CCCN=C(N)N)NC(=O)[C@H](C)NC(=O)CNC(=O)[C@@H](NC(=O)[C@H](Cc1ccc(F)cc1)NC(=O)CNC(=O)CNC(=O)[C@@H](N)Cc1ccccc1)[C@@H](C)O)C(=O)N[C@@H](CCCCN)C(=O)N[C@@H](CC(N)=O)C(=O)N[C@@H](CCC(N)=O)C(N)=O`, at Nociceptin receptor [4], the EC50 was 0.36 nM.

For the compound `CC(C)C[C@H](NC(=O)[C@H](CCCCN)NC(=O)[C@H](CCCN=C(N)N)NC(=O)[C@H](C)NC(=O)[C@H](CO)NC(=O)[C@H](CCCCN)NC(=O)[C@H](CCCN=C(N)N)NC(=O)[C@H](C)NC(=O)CNC(=O)[C@@H](NC(=O)[C@H](Cc1ccccc1)NC(=O)CNC(=O)CNC(=O)[C@@H](N)Cc1ccccc1)[C@@H](C)O)C(=O)N[C@@H](C)C(=O)N[C@@H](CC(N)=O)C(=O)N[C@@H](CCC(N)=O)C(=O)O` [NOCICEPTIN], in data set [7], the half-life is 1 h. Besides, in data set [8], the Activity result was “Non-toxic”.
